T/C data for 17 compounds are collected here from PubChem BioAssay AID220 (DTP/NCI, 2004).

In this experiment the test system is CD8F1 mice, subcutaneous mammary adenocarcinoma, T/C%. Put plainly: NCI In Vivo Anticancer Drug Screen. Data for tumor model Mammary Adenocarcinoma CD8F1 (subcutaneous) in CD8F1. The following applies: higher = larger tumour. The method, boiled down:
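Mice carrying transplanted tumors received test compound, and survival or tumor size was recorded. Each value is the treated-group measurement divided by the corresponding measurement in vehicle-dosed controls.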

Where [1] appears, read: endpoint: median tumor weight (est.), dose: 12.5 mg/kg/injection, schedule: Q07DX005 (ip), vehicle: Klucel (hydroxypropylcellulose) (HPC).
The mark [2] stands for this setting: endpoint: median tumor weight (est.), dose: 25.0 mg/kg/injection, schedule: Q07DX005 (ip), vehicle: Klucel (hydroxypropylcellulose) (HPC).
[3] abbreviates: endpoint: median tumor weight (est.), dose: 100.0 mg/kg/injection, schedule: Q07DX005 (ip), vehicle: Klucel (hydroxypropylcellulose) (HPC).
Setting [4] is: endpoint: median tumor weight change, dose: 62.5 mg/kg/injection, schedule: Q01DX001 (ip), vehicle: Klucel (hydroxypropylcellulose) (HPC).
Where [5] appears, read: endpoint: median tumor weight change, dose: 125.0 mg/kg/injection, schedule: Q01DX001 (ip), vehicle: Klucel (hydroxypropylcellulose) (HPC).
Where [6] appears, read: endpoint: median tumor weight change, dose: 250.0 mg/kg/injection, schedule: Q01DX001 (ip), vehicle: Klucel (hydroxypropylcellulose) (HPC).
Where [7] appears, read: endpoint: median tumor weight change, dose: 500.0 mg/kg/injection, schedule: Q01DX001 (ip), vehicle: Klucel (hydroxypropylcellulose) (HPC).
Setting [8] is: endpoint: median tumor weight change, dose: 1000.0 mg/kg/injection, schedule: Q01DX001 (ip), vehicle: Klucel (hydroxypropylcellulose) (HPC).

Molecules are shown by their SMILES. “And” between values parts separate entries of the source, which are not always exact repeats. Identical values can stand only once. Inconclusive results are not listed. Starred links: 1 amine or outer side, 2 acyl side, 3 side chain; linkers in the order of their positions; H or OH if unused. Positions of bridges follow the written chain, without caps; N, C: chain ends. Non-standard residues stand in square brackets, D forms with d. Residues, ends and D or L forms follow the SMILES beside them. Chains are numbered I, II in the order given. Actinocin(1to9) = Cc1c2oc3c(C)ccc(C(=O)[*:2])c3nc-2c(C(=O)[*:1])c(N)c1=O; NMeV = CN[CH](C(=O)O)C(C)C; Aze = O=C(O)[CH]1CCN1; Sar = CNCC(=O)O

`O=CC(NC(=O)N(CCCl)N=O)C(O)C(O)C(O)CO` (configuration not stated): the T/C is 58 % of control (endpoint: mean tumor weight, dose: 1.5 mg/kg/injection, schedule: Q02DX008 (ip), vehicle: saline); 24 % of control (endpoint: mean tumor weight, dose: 3.0 mg/kg/injection, schedule: Q02DX008 (ip), vehicle: saline); 31 % of control (endpoint: mean tumor weight, dose: 6.0 mg/kg/injection, schedule: Q02DX008 (ip), vehicle: saline); 175 % of control (endpoint: median tumor weight (est.), dose: 1.5 mg/kg/injection, schedule: Q07DX005 (ip), vehicle: saline); 107 % of control (endpoint: median tumor weight (est.), dose: 3.0 mg/kg/injection, schedule: Q07DX005 (ip), vehicle: saline); 53 % of control (endpoint: median tumor weight (est.), dose: 6.0 mg/kg/injection, schedule: Q07DX005 (ip), vehicle: saline). In addition, the T/C runs as follows: (endpoint: median tumor weight (est.), dose: 12.0 mg/kg/injection, schedule: Q07DX005 (ip), vehicle: saline) 14 % of control; (endpoint: median tumor weight (est.), dose: 24.0 mg/kg/injection, schedule: Q07DX005 (ip), vehicle: saline) 13 % of control.

Consider `O=C1CC2(C(=O)N1CN1CCCCC1)c1ccccc1-c1ccccc12`, for which the T/C under setting [1] is 99 % of control; the T/C under setting [2] was 71 % of control; the T/C under setting [3] was 85 % of control; the T/C (endpoint: median tumor weight (est.), dose: 200.0 mg/kg/injection, schedule: Q07DX005 (ip), vehicle: Klucel (hydroxypropylcellulose) (HPC)) was 62 % of control; the T/C (endpoint: median tumor weight (est.), dose: 400.0 mg/kg/injection, schedule: Q07DX005 (ip), vehicle: Klucel (hydroxypropylcellulose) (HPC)) is 21 % of control.

For `Cc1c2ccccc2cc2cccc[n+]12`, the T/C (endpoint: median tumor weight change, dose: 20.0 mg/kg/injection, schedule: Q01DX001 (ip), vehicle: saline) was 116 % of control; the T/C (endpoint: median tumor weight change, dose: 25.0 mg/kg/injection, schedule: Q01DX001 (ip), vehicle: saline) was 123 % of control; the T/C (endpoint: median tumor weight change, dose: 40.0 mg/kg/injection, schedule: Q01DX001 (ip), vehicle: saline) was 119 % of control; the T/C (endpoint: median tumor weight change, dose: 50.0 mg/kg/injection, schedule: Q01DX001 (ip), vehicle: saline) is 59 % of control.

For the compound `Cc1ccc(C(=O)[O][Hg][CH2]C2COC([CH2][Hg][O]C(=O)c3ccc(C)cc3)CO2)cc1` (configuration not stated), the T/C is 60 % of control (endpoint: median tumor weight (est.), dose: 6.25 mg/kg/injection, schedule: Q07DX005 (ip), vehicle: Klucel (hydroxypropylcellulose) (HPC)); 72 % of control under setting [1]; 117 % of control under setting [2]; 57 % of control (endpoint: median tumor weight (est.), dose: 50.0 mg/kg/injection, schedule: Q07DX005 (ip), vehicle: Klucel (hydroxypropylcellulose) (HPC)); 162 % of control under setting [3].

`Cc1c2oc3c(C)ccc(C(=O)NC4C(=O)NC(C(C)C)C(=O)N5CCCC5C(=O)N(C)CC(=O)N(C)C(C(C)C)C(=O)OC4C)c3nc-2c(C(=O)NC2C(=O)NC(C(C)C)C(=O)N3CCC3C(=O)N(C)CC(=O)N(C)C(C(C)C)C(=O)OC2C)c(N)c1=O` (configuration not stated) (I: TV[Aze][Sar][NMeV] / II: TVP[Sar][NMeV]; ester I:1-I:C, II:1-II:C; linker I:N-II:N via Actinocin(1to9); configuration not given here): the T/C is 34 % of control and 44 % of control (endpoint: median tumor weight (est.), dose: 300.0 micrograms/kg/injection, schedule: Q07DX005 (ip), vehicle: saline + alcohol); 2 % of control (endpoint: median tumor weight (est.), dose: 600.0 micrograms/kg/injection, schedule: Q07DX005 (ip), vehicle: saline + alcohol).

Consider `O=C1C=C(C2OC(CO)C(O)C2O)C(=O)N1` (configuration not stated), for which the T/C is 73 % of control (endpoint: median tumor weight (est.), dose: 1.56 mg/kg/injection, schedule: Q07DX005 (ip), vehicle: saline) and 114 % of control (endpoint: median tumor weight (est.), dose: 6.25 mg/kg/injection, schedule: Q07DX005 (ip), vehicle: saline).

With `CCCCCC[Se][Se]CCCCCC`, the T/C reads like this: (endpoint: median tumor weight change, dose: 31.25 mg/kg/injection, schedule: Q01DX001 (ip), vehicle: Klucel (hydroxypropylcellulose) (HPC)) 116 % of control; under setting [4], 159 % of control.

As to `CC1=C(/C=C/C(C)=C/C=C/C(C)=C/C=O)C(C)(C)CCC1`, the T/C runs as follows: (endpoint: median tumor weight change, dose: 62.5 mg/kg/injection, schedule: Q01DX001 (ip), vehicle: saline with Tween-80) 104 % of control; (endpoint: median tumor weight change, dose: 125.0 mg/kg/injection, schedule: Q01DX001 (ip), vehicle: saline with Tween-80) 74 % of control.

`O=NN(CCF)C(=O)NC1CCCCC1`: the T/C reads like this: (endpoint: median tumor weight change, dose: 4.0 mg/kg/injection, schedule: Q01DX001 (ip), vehicle: Klucel (hydroxypropylcellulose) (HPC)) 87 % of control; (endpoint: median tumor weight change, dose: 16.0 mg/kg/injection, schedule: Q01DX001 (ip), vehicle: Klucel (hydroxypropylcellulose) (HPC)) 44 % of control; (endpoint: median tumor weight change, dose: 31.0 mg/kg/injection, schedule: Q01DX001 (ip), vehicle: Klucel (hydroxypropylcellulose) (HPC)) 45 % of control; under setting [4], 30 % of control.

In the case of `O=C(CCl)NC(Cc1ccc(N(CCCl)CCCl)cc1)C(=O)O` (configuration not stated), the T/C reads like this: (endpoint: median tumor weight (est.), dose: 2.0 mg/kg/injection, schedule: Q01DX001 (ip), vehicle: Klucel (hydroxypropylcellulose) (HPC)) 93 % of control; (endpoint: median tumor weight (est.), dose: 4.0 mg/kg/injection, schedule: Q01DX001 (ip), vehicle: Klucel (hydroxypropylcellulose) (HPC)) 54 % of control; (endpoint: median tumor weight (est.), dose: 8.0 mg/kg/injection, schedule: Q01DX001 (ip), vehicle: Klucel (hydroxypropylcellulose) (HPC)) 75 % of control and 82 % of control; (endpoint: median tumor weight (est.), dose: 16.0 mg/kg/injection, schedule: Q01DX001 (ip), vehicle: Klucel (hydroxypropylcellulose) (HPC)) 48 % of control and 60 % of control; (endpoint: median tumor weight (est.), dose: 32.0 mg/kg/injection, schedule: Q01DX001 (ip), vehicle: Klucel (hydroxypropylcellulose) (HPC)) 60 % of control and 62 % of control; (endpoint: median tumor weight (est.), dose: 64.0 mg/kg/injection, schedule: Q01DX001 (ip), vehicle: Klucel (hydroxypropylcellulose) (HPC)) 19 % of control and 43 % of control.

Consider `O=C(O)C1CC1.[Ag]`, for which the T/C by setting is: (endpoint: median tumor weight (est.), dose: 6.25 mg/kg/injection, schedule: Q07DX005 (ip), vehicle: distilled water + Tween-80) 63 % of control; (endpoint: median tumor weight (est.), dose: 12.5 mg/kg/injection, schedule: Q07DX005 (ip), vehicle: distilled water + Tween-80) 88 % of control.

`CC(C)CCCCCCCCCCCCC(=O)NCC(=O)NC1C(O)C(O)C(Nc2ncnc3nc[nH]c23)OC1C(O)CO` (configuration not stated): the T/C was 169 % of control (endpoint: median tumor weight (est.), dose: 1.0 mg/kg/injection, schedule: Q07DX005 (ip), vehicle: Klucel (hydroxypropylcellulose) (HPC)); 51 % of control and 76 % of control (endpoint: median tumor weight (est.), dose: 2.0 mg/kg/injection, schedule: Q07DX005 (ip), vehicle: Klucel (hydroxypropylcellulose) (HPC)).

As to `Cc1ccc(C2NC(=S)N3C(c4ccc(C)cc4)NC(=S)N23)cc1` (configuration not stated), the T/C was 77 % of control under setting [5]; 104 % of control under setting [6]; 107 % of control under setting [7]; 94 % of control under setting [8]; 68 % of control (endpoint: median tumor weight change, dose: 2000.0 mg/kg/injection, schedule: Q01DX001 (ip), vehicle: Klucel (hydroxypropylcellulose) (HPC)).

Turning to `CS(=O)(=O)Nc1ccc(C(=O)CCN2CCCCCC2)cc1`, the T/C was 157 % of control (endpoint: median tumor weight change, dose: 125.0 mg/kg/injection, schedule: Q01DX001 (ip), vehicle: suspension in saline); 166 % of control (endpoint: median tumor weight change, dose: 250.0 mg/kg/injection, schedule: Q01DX001 (ip), vehicle: suspension in saline); 92 % of control (endpoint: median tumor weight change, dose: 500.0 mg/kg/injection, schedule: Q01DX001 (ip), vehicle: suspension in saline).

Regarding `O=[N+]([O-])O.O=[N+]([O-])O.[NH-]C1CCCCC1[NH-].[Pt+2]` (configuration not stated), the T/C is 46 % of control and 52 % of control (endpoint: median tumor weight (est.), dose: 0.5 mg/kg/injection, schedule: Q07DX005 (ip), vehicle: dextrose); 50 % of control (endpoint: median tumor weight (est.), dose: 2.0 mg/kg/injection, schedule: Q07DX005 (ip), vehicle: dextrose); 29 % of control and 38 % of control (endpoint: median tumor weight (est.), dose: 4.0 mg/kg/injection, schedule: Q07DX005 (ip), vehicle: dextrose); 12 % of control and 29 % of control (endpoint: median tumor weight (est.), dose: 8.0 mg/kg/injection, schedule: Q07DX005 (ip), vehicle: dextrose).

Turning to `COc1ccc(-c2csc(=[N+]3CCCCC3)s2)cc1`, the T/C is 194 % of control (endpoint: median tumor weight change, dose: 31.0 mg/kg/injection, schedule: Q01DX001 (ip), vehicle: saline with Tween-80) and 75 % of control (endpoint: median tumor weight change, dose: 31.0 mg/kg/injection, schedule: Q01DX001 (ip), vehicle: water).

Regarding `COc1ccc2ccccc2c1C1NC(=O)c2ccccc2N1` (configuration not stated), the T/C was 88 % of control under setting [5], 118 % of control under setting [6], 97 % of control under setting [7] and 60 % of control under setting [8].
